{
  "source": "patent US7833531B2",
  "about": "“Method for treating insulin sensitivity by long-acting GLP-1 receptor mimetibody agonists” (Centocor, Inc., priority 2006, dated 2010)",
  "assay_type_in_all_cases": "in vivo",
  "key": {"DIO mice [1]": {"test_system": "DIO mice", "assay": "Hyperinsulinemic euglycemic clamp, body weights and plasma parameters in DIO mice after acute treatment", "details": "for Body weight / FFA / Glucose / Glycerol / Insulin: single i.p. injection, mean ± SD; for FFA / Glucose / Glycerol / Insulin: plasma", "procedure": "(§1) The effect of acute treatment of CNTO 736 (Table 4, SEQ ID NO:70) on insulin sensitivity and lipid metabolism was evaluated in C57Bl mice maintained on a high fat diet for 10 weeks (DIO mice). […] The effect of chronic treatment of CNTO 736 on insulin sensitivity and lipid metabolism was evaluated in C57Bl mice maintained on a high fat diet for 10 weeks. […] The hyperinsulinemic-euglycemic clamp was performed under Acepromazine (6.25 mg/kg)/Midazolam (6.25 mg/kg)/Fentanyl (0.3125 mg/kg) anaesthesia in the following manner. Mice had free access to high fat food and water until 10 hours prior to the clamp. […] Subsequently, insulin was administered in a primed (4.5 mU) continuous (6.8 mU/h) i.v. infusion for approximately 2 h to attain steady state circulating insulin levels of 4 ng/ml. […] VLDL-TG production was calculated from the slope of the concentration curve and expressed as gmol/kg/min. Turnover rates of glucose (μmol/min/kg) was calculated in basal and hyperinsulinemic conditions as the rate of tracer infusion (dpm/min) divided by the plasma specific activity of 14C-glucose (dpm/μmol). The ratio was corrected for body weight. Endogenous glucose production (EGP) was calculated as the difference between the tracer-derived rate of glucose appearance and the infusion rate of glucose. Glucose disposal was calculated based on the concentration of 14C-glucose normalized to infusion rate of glucose. The statistical significance (p<0.05) in various measures of glucose turnover and VLDL production among groups was tested by analysis of variance."}, "DIO mice [2]": {"test_system": "DIO mice", "assay": "Hyperinsulinemic euglycemic clamp, body weights and plasma parameters in DIO mice after chronic treatment", "details": "for Body weight / FFA / Glycerol / Insulin / Glucose: daily i.p. injections weeks 7 through 10, mean ± SD; for FFA / Glycerol / Insulin / Glucose: plasma", "procedure": "as §1, with “variance. […] Two hours after the last dose, mice were subjected to hyperinsulinemic euglycemic clamp.” for “variance.”"}, "DIO mice [3]": {"test_system": "DIO mice", "assay": "VLDL production in DIO mice after acute treatment", "procedure": "(§2) The effect of acute treatment of CNTO 736 (Table 4, SEQ ID NO:70) on insulin sensitivity and lipid metabolism was evaluated in C57Bl mice maintained on a high fat diet for 10 weeks (DIO mice). […] The effect of chronic treatment of CNTO 736 on insulin sensitivity and lipid metabolism was evaluated in C57Bl mice maintained on a high fat diet for 10 weeks.\n(§3) Blood samples (20 μl) were taken at t=0, 10, 20, 40 and 60 minutes after injection to determine the concentration of plasma triglycerides (TG). VLDL-TG production was calculated from the slope of the concentration curve and expressed as gmol/kg/min. Turnover rates of glucose (μmol/min/kg) was calculated in basal and hyperinsulinemic conditions as the rate of tracer infusion (dpm/min) divided by the plasma specific activity of 14C-glucose (dpm/μmol). The ratio was corrected for body weight. Endogenous glucose production (EGP) was calculated as the difference between the tracer-derived rate of glucose appearance and the infusion rate of glucose. Glucose disposal was calculated based on the concentration of 14C-glucose normalized to infusion rate of glucose. The statistical significance (p<0.05) in various measures of glucose turnover and VLDL production among groups was tested by analysis of variance."}, "DIO mice [4]": {"test_system": "DIO mice", "assay": "VLDL production in DIO mice after chronic treatment", "details": "either dose of CNTO 736", "procedure": "as §2, §3"}, "Sprague-Dawley rats": {"test_system": "Sprague-Dawley rats", "assay": "Intracerebroventricular (icv) dosing in rats: food intake, water intake, body weight", "details": "icv 3 nmols", "excerpt": "Sprague-Dawley rats weighing 250-350 g were cannulized into the lateral ventricle at the following coordinates: −0.80 mm anterior, +1.2 mm lateral to bregma, −3.2 mm ventral to bregma. Animals were submitted for Angiotensin II testing to confirm that the cannulas were placed appropriately. Rats were acclimated to a reversed light/dark cycle and to handling. A 24-hour fasted/refed measurement was taken after a single PBS injection in order to establish a feeding baseline. Animals were evenly distributed according to 24-hour food intake from PBS injections (3 groups of 10 animals). Seven-ten days following PBS injection, rats were fasted for 24 hours and were dosed icv prior to entering the dark cycle."}, "[5]": {"details": "acute, i.p., CNTO 736 1 mg/kg and 0.1 mg/kg, exenatide 7.1 ug/ml, clamp 2 hours post dosing, differences do not reach statistical significance"}, "[6]": {"details": "acute, CNTO 736 0.1 mgk, Hyperinsulinemic"}, "[7]": {"details": "acute, CNTO 736 1 mgk, Hyperinsulinemic"}, "[8]": {"details": "chronic, CNTO 736 0.1 mgk, Basal"}, "[9]": {"details": "chronic, CNTO 736 0.1 mgk, Hyperinsulinemic"}, "[10]": {"details": "chronic, CNTO 736 1 mgk, Hyperinsulinemic"}, "[11]": {"details": "24 hours fasted rats, first 12 hours following dosing"}, "[12]": {"details": "second 12 hours following dosing (12-24 hours)"}},
  "note": "Entries after “also recorded” stand apart in the source; their conditions may differ.",
  "data": [
    {"substance": "CNTO 736: a GLP-1 receptor agonist, a GLP-1 mimetibody construct; sequence in Table 4 (SEQ ID NO:70)", "values": [
      {"measurement": "glycerol turnover (lipolysis)", "setting": "DIO mice [1]; acute administration, either dose, basal (fasting) or hyperinsulinemic conditions", "result": "did not affect glycerol turnover"},
      {"measurement": "basal glucose production", "setting": "DIO mice [1]; [5]", "result": "tend to decrease the basal glucose production"},
      {"measurement": "whole body glucose disposal", "setting": "DIO mice [1]; [5]", "result": "increase the whole body glucose disposal"},
      {"measurement": "Body weight", "setting": "DIO mice [1]; acute, CNTO 736 0.1 mgk, Basal", "result": "31.3 ± 1.6", "unit": "g"},
      {"measurement": "Body weight", "setting": "DIO mice [1]; [6]", "result": "31.3 ± 1.6", "unit": "g"},
      {"measurement": "Body weight", "setting": "DIO mice [1]; acute, CNTO 736 1 mgk, Basal", "result": "31.2 ± 2.2", "unit": "g"},
      {"measurement": "Body weight", "setting": "DIO mice [1]; [7]", "result": "31.2 ± 2.2", "unit": "g"},
      {"measurement": "FFA", "setting": "DIO mice [1]; acute, CNTO 736 0.1 mgk, Basal", "result": "1.1 ± 0.5", "unit": "mmol/L"},
      {"measurement": "Glucose", "setting": "DIO mice [1]; acute, CNTO 736 0.1 mgk, Basal", "result": "5.5 ± 1.2", "unit": "mmol/L"},
      {"measurement": "Glycerol", "setting": "DIO mice [1]; acute, CNTO 736 0.1 mgk, Basal", "result": "0.2 ± 0.1", "unit": "mmol/L"},
      {"measurement": "Insulin", "setting": "DIO mice [1]; acute, CNTO 736 0.1 mgk, Basal", "result": "1.1 ± 0.8", "unit": "ng/mL"},
      {"measurement": "FFA", "setting": "DIO mice [1]; [6]", "result": "0.7 ± 0.3", "unit": "mmol/L"},
      {"measurement": "Glucose", "setting": "DIO mice [1]; [6]", "result": "7.3 ± 0.5", "unit": "mmol/L"},
      {"measurement": "Glycerol", "setting": "DIO mice [1]; [6]", "result": "0.1 ± 0.1", "unit": "mmol/L"},
      {"measurement": "Insulin", "setting": "DIO mice [1]; [6]", "result": "3.5 ± 1.3", "unit": "ng/mL"},
      {"measurement": "FFA", "setting": "DIO mice [1]; acute, CNTO 736 1 mgk, Basal", "result": "1.1 ± 0.5", "unit": "mmol/L"},
      {"measurement": "Glycerol", "setting": "DIO mice [1]; acute, CNTO 736 1 mgk, Basal", "result": "0.2 ± 0.1", "unit": "mmol/L"},
      {"measurement": "Insulin", "setting": "DIO mice [1]; acute, CNTO 736 1 mgk, Basal", "result": "0.9 ± 0.6", "unit": "ng/mL"},
      {"measurement": "FFA", "setting": "DIO mice [1]; [7]", "result": "0.6 ± 0.4", "unit": "mmol/L"},
      {"measurement": "Glucose", "setting": "DIO mice [1]; [7]", "result": "8.0 ± 0.8", "unit": "mmol/L"},
      {"measurement": "Glycerol", "setting": "DIO mice [1]; [7]", "result": "0.1 ± 0.1", "unit": "mmol/L"},
      {"measurement": "Insulin", "setting": "DIO mice [1]; [7]", "result": "4.5 ± 1.7", "unit": "ng/mL"},
      {"measurement": "glycerol turnover (lipolysis)", "setting": "DIO mice [2]; chronic administration, either dose, basal (fasting) or hyperinsulinemic conditions", "result": "did not affect glycerol turnover"},
      {"measurement": "insulin action / peripheral insulin sensitivity", "setting": "DIO mice [2]; chronic dosing, mice with diet-induced obesity", "result": "improve insulin action; also recorded: significantly improves peripheral insulin sensitivity"},
      {"measurement": "Body weight", "setting": "DIO mice [2]; [8]", "result": "26.1 ± 1.9", "unit": "g"},
      {"measurement": "Body weight", "setting": "DIO mice [2]; [9]", "result": "26.1 ± 1.9", "unit": "g"},
      {"measurement": "Body weight", "setting": "DIO mice [2]; [10]", "result": "25.1 ± 1.3", "unit": "g"},
      {"measurement": "gluconeogenesis in the fasting state (de novo glucose production)", "setting": "DIO mice [2]; chronic, i.p. daily for 4 weeks", "result": "significantly decreased gluconeogenesis; also recorded: inhibits hepatic gluconeogenesis"},
      {"measurement": "basal hepatic glucose production", "setting": "DIO mice [2]; chronic, i.p. daily for 4 weeks, both doses of CNTO 736 (1 or 0.1 mg/kg), exendin-4 7.1 μg/kg", "result": "significantly decreased"},
      {"measurement": "insulin-inhibition of hepatic glucose production", "setting": "DIO mice [2]; chronic, i.p. daily for 4 weeks, both doses of CNTO 736, exendin-4 7.1 μg/kg", "result": "increased insulin-inhibition of hepatic glucose production"},
      {"measurement": "whole body glucose disposal in the hyperinsulinemic state", "setting": "DIO mice [2]; chronic, i.p. daily for 4 weeks, high dose of CNTO 736 (1 mg/kg), exendin-4 7.1 μg/kg", "result": "significantly increased"},
      {"measurement": "gluconeogenesis in the fasting state (de novo glucose production)", "setting": "DIO mice [2]; chronic, i.p. daily for 4 weeks, listed as CNT0736", "result": "inhibited de novo glucose production"},
      {"measurement": "FFA", "setting": "DIO mice [2]; [8]", "result": "1.1 ± 0.3", "unit": "mmol/L"},
      {"measurement": "Glycerol", "setting": "DIO mice [2]; [8]", "result": "0.2 ± 0.0", "unit": "mmol/L"},
      {"measurement": "Insulin", "setting": "DIO mice [2]; [8]", "result": "1.1 ± 0.6", "unit": "ng/mL"},
      {"measurement": "FFA", "setting": "DIO mice [2]; [9]", "result": "0.5 ± 0.1", "unit": "mmol/L"},
      {"measurement": "Glucose", "setting": "DIO mice [2]; [9]", "result": "7.6 ± 1.1", "unit": "mmol/L"},
      {"measurement": "Glycerol", "setting": "DIO mice [2]; [9]", "result": "0.1 ± 0.1", "unit": "mmol/L"},
      {"measurement": "Insulin", "setting": "DIO mice [2]; [9]", "result": "4.6 ± 1.0", "unit": "ng/mL"},
      {"measurement": "FFA", "setting": "DIO mice [2]; chronic, CNTO 736 1 mgk, Basal", "result": "1.1 ± 0.2", "unit": "mmol/L"},
      {"measurement": "Glycerol", "setting": "DIO mice [2]; chronic, CNTO 736 1 mgk, Basal", "result": "0.2 ± 0.1", "unit": "mmol/L"},
      {"measurement": "Insulin", "setting": "DIO mice [2]; chronic, CNTO 736 1 mgk, Basal", "result": "1.4 ± 1.3", "unit": "ng/mL"},
      {"measurement": "FFA", "setting": "DIO mice [2]; [10]", "result": "0.4 ± 0.1", "unit": "mmol/L"},
      {"measurement": "Glucose", "setting": "DIO mice [2]; [10]", "result": "7.6 ± 0.9", "unit": "mmol/L"},
      {"measurement": "Glycerol", "setting": "DIO mice [2]; [10]", "result": "0.1 ± 0.1", "unit": "mmol/L"},
      {"measurement": "Insulin", "setting": "DIO mice [2]; [10]", "result": "5.0 ± 1.9", "unit": "ng/mL"},
      {"measurement": "basal or hyperinsulinemic rate of VLDL production", "setting": "DIO mice [3]", "result": "did not change"},
      {"measurement": "basal and hyperinsulinemic rate of VLDL production", "setting": "DIO mice [4]", "result": "significantly decreased; also recorded: decreases VLDL production"},
      {"measurement": "food intake", "setting": "Sprague-Dawley rats; [11]", "result": "significant reduction"},
      {"measurement": "water intake", "setting": "Sprague-Dawley rats; [11]", "result": "significant reduction"},
      {"measurement": "food intake", "setting": "Sprague-Dawley rats; [12]", "result": "significant reduction in food intake"},
      {"measurement": "water intake", "setting": "Sprague-Dawley rats; [12]", "result": "observed only with exendin-4 treatment"}
    ]}
  ]
}
